Assay results taken from article PMC6792352, “Limited Chemical Structural Diversity Found to Modulate Thyroid Hormone Receptor in the Tox21 Chemical Library” (Environmental Health Perspectives, 2019).
Where a name gives a salt, the structure may show the parent alone. Read-outs that look alike come from different tables or passages of the source.

How the values were obtained:
in vitro = conditions: rat, gh3-tre-luc cells, AC50 (uM) modified / 1000
GH3-TRE-Luc cell line = conditions: read-out: AC50 (uM) modified / 1000, viability, 1 nM T3 present, 24 h

With CC[C@H]1OC(=O)[C@H](C)[C@@H](O[C@H]2C[C@@](C)(OC)[C@@H](O)[C@H](C)O2)[C@H](C)[C@@H](O[C@@H]2O[C@H](C)C[C@H](N(C)C)[C@H]2O)[C@](C)(O)C[C@@H](C)CN(C)[C@H](C)[C@@H](O)[C@]1(C)O [Azithromycin] the CC50 at 24 h (in vitro) was 28.3 µM and the CC50 (GH3-TRE-Luc cell line; Tox21_110001=Tox21_111008) was 35.5 µM.

Work on CCCCCCc1ccc(O)cc1O [4-Hexylresorcinol] yielded a CC50 at 24 h (in vitro) of 61 µM and a CC50 (GH3-TRE-Luc cell line; Tox21_110001=Tox21_300357) of 56.7 µM.

In the case of Nc1ccc([N+](=O)[O-])cc1N [4-Nitro-1,2-phenylenediamine], the CC50 at 24 h (in vitro) was 21.8 µM and the CC50 (GH3-TRE-Luc cell line; Tox21_110001=Tox21_302811) was 26.4 µM.

Work on CN(C)CCOc1ccc(/C(=C(/CCCl)c2ccccc2)c2ccccc2)cc1 [Toremifene citrate] yielded a CC50 at 24 h (in vitro) of 8.87 µM and a CC50 (GH3-TRE-Luc cell line; Tox21_110001=Tox21_111877) of 11.4 µM.

CCNc1nc(NC(C)(C)C)nc(SC)n1 [Terbutryn] gave a CC50 at 24 h (in vitro) greater than 90 µM and a CC50 (GH3-TRE-Luc cell line; Tox21_110001=Tox21_303141) of 74.8 µM.

With Cc1cc(Cc2cc(C)cc(C(C)(C)C)c2O)c(O)c(C(C)(C)C)c1 [2,2'-Methylenebis(4-methyl-6-tert-butylphenol)] the CC50 at 24 h (in vitro) was 11.5 µM and the CC50 (GH3-TRE-Luc cell line; Tox21_110001=Tox21_302923) was 10.1 µM.

With N#C/C(=C1/SC[C@@H](c2ccc(Cl)cc2Cl)S1)n1ccnc1 [Luliconazole] the CC50 at 24 h (in vitro) was greater than 50 µM and the CC50 (GH3-TRE-Luc cell line; Tox21_110001=Tox21_112974) was 40.6 µM.

Work on CC(CN1c2ccccc2Sc2ccccc21)N(C)C (stereo not shown) [Promethazine hydrochloride] yielded a CC50 at 24 h (in vitro) of 12.2 µM and a CC50 (GH3-TRE-Luc cell line; Tox21_110001=Tox21_302878) of 23 µM.

Work on Cc1ccc(/C=C2/C(=O)C3(C)CCC2C3(C)C)cc1 (stereo not shown) [Enzacamene] yielded a CC50 at 24 h (in vitro) greater than 90 µM and a CC50 (GH3-TRE-Luc cell line; Tox21_110001=Tox21_112423) of 46.5 µM.

With Oc1ccc(Cl)cc1Cc1cc(Cl)ccc1O [Dichlorophen] the CC50 at 24 h (in vitro) was 16.7 µM, the CC50 (GH3-TRE-Luc cell line; Tox21_110001=Tox21_111112) was 15.4 µM and the CC50 (GH3-TRE-Luc cell line; Tox21_110001=Tox21_303013) was 27.4 µM.

COc1cc(-c2ccc(N)c(OC)c2)ccc1N [3,3'-Dimethoxybenzidine dihydrochloride] gave a CC50 at 24 h (in vitro) greater than 90 µM and a CC50 (GH3-TRE-Luc cell line; Tox21_110001=Tox21_300315) of 65 µM.

In the case of CCOc1cc(Oc2ccc(C(F)(F)F)cc2Cl)ccc1[N+](=O)[O-] [Oxyfluorfen], the CC50 at 24 h (in vitro) was 79.3 µM and the CC50 (GH3-TRE-Luc cell line; Tox21_110001=Tox21_300827) was 50 µM.

With c1ccc(Nc2cccc3ccccc23)cc1 [N-Phenyl-1-naphthylamine] the CC50 at 24 h (in vitro) was 64.9 µM and the CC50 (GH3-TRE-Luc cell line; Tox21_110001=Tox21_303075) was 61.1 µM.

With CN1[C@@H]2CC[C@H]1C[C@@H](OC(c1ccccc1)c1ccccc1)C2 [Benztropine] the CC50 at 24 h (in vitro) was 24.5 µM and the CC50 (GH3-TRE-Luc cell line; Tox21_110001=Tox21_111695) was 13.8 µM.

CCN(CC)C(=O)c1cc(S(=O)(=O)Cc2ccccc2)c(N2CCC(c3ccccc3)CC2)cc1N(CC)CCN(C)C [HMR1171 trifluoroacetate (1:1)] showed a CC50 at 24 h (in vitro) of 4.78 µM and a CC50 (GH3-TRE-Luc cell line; Tox21_110001=Tox21_113204) of 3.38 µM.

Compound O=C(Nc1ccc(Cl)cc1)Nc1ccc(Cl)c(Cl)c1 [Triclocarban] has a CC50 at 24 h (in vitro) of 6.61 µM, a CC50 (GH3-TRE-Luc cell line; Tox21_110001=Tox21_112078) of 3.75 µM and a CC50 (GH3-TRE-Luc cell line; Tox21_110001=Tox21_300481) of 3.32 µM.

C=CC(=O)OCCOCCOCCOCCOC(=O)C=C [Tetraethylene glycol diacrylate] gave a CC50 at 24 h (in vitro) of 17.7 µM and a CC50 (GH3-TRE-Luc cell line; Tox21_110001=Tox21_202993) of 17.8 µM.

For Cc1cc(O)c2c(c1)C(=O)c1cc(O)cc(O)c1C2=O [Emodin], the CC50 at 24 h (in vitro) was 29.1 µM and the CC50 (GH3-TRE-Luc cell line; Tox21_110001=Tox21_303218) was 34.9 µM.

In the case of O=C1NCCN1CCN1CCC(c2cn(-c3ccc(F)cc3)c3ccc(Cl)cc23)CC1 [Sertindole], the CC50 at 24 h (in vitro) was 5.55 µM and the CC50 (GH3-TRE-Luc cell line; Tox21_110001=Tox21_113421) was 6.74 µM.

Work on CN(C)c1ccc(C(=N)c2ccc(N(C)C)cc2)cc1 [Auramine hydrochloride] yielded a CC50 at 24 h (in vitro) of 63.2 µM and a CC50 (GH3-TRE-Luc cell line; Tox21_110001=Tox21_303002) of 57.6 µM.

OCCN1CCN(CCCN2c3ccccc3C=Cc3ccccc32)CC1 [Opipramol dihydrochloride] gave a CC50 at 24 h (in vitro) of 6.78 µM and a CC50 (GH3-TRE-Luc cell line; Tox21_110001=Tox21_113153) of 8.37 µM.

Work on Cc1ccc(/N=C/N(C)/C=N/c2ccc(C)cc2C)c(C)c1 [Amitraz] yielded a CC50 at 24 h (in vitro) of 59 µM and a CC50 (GH3-TRE-Luc cell line; Tox21_110001=Tox21_300930) of 62.8 µM.

With CC(=O)[C@H]1CC[C@H]2[C@@H]3CCC4=CC(=O)CC[C@]4(C)[C@H]3CC[C@]12C [Progesterone] the CC50 at 24 h (in vitro) was 85.9 µM and the CC50 (GH3-TRE-Luc cell line; Tox21_110001=Tox21_300307) was 81.7 µM.

O=C(O[C@@H]1Cc2c(O)cc(O)cc2O[C@@H]1c1cc(O)c(O)c(O)c1)c1cc(O)c(O)c(O)c1 [(-)-Epigallocatechin gallate] showed a CC50 at 24 h (in vitro) of 48.4 µM and a CC50 (GH3-TRE-Luc cell line; Tox21_110001=Tox21_303457) of 50.7 µM.

CN(C)CCC(c1ccc(Cl)cc1)c1ccccn1 (stereo not shown) [Chlorpheniramine maleate] showed a CC50 at 24 h (in vitro) of 40.4 µM and a CC50 (GH3-TRE-Luc cell line; Tox21_110001=Tox21_303456) of 41.3 µM.

CC(=O)Oc1ccccc1C(=O)Nc1ncc([N+](=O)[O-])s1 [Nitazoxanide] showed a CC50 at 24 h (in vitro) of 23.7 µM and a CC50 (GH3-TRE-Luc cell line; Tox21_110001=Tox21_111018) of 27.7 µM.

With O=[N+]([O-])C(Br)(CO)CO [Bronopol] the CC50 at 24 h (in vitro) was 22 µM and the CC50 (GH3-TRE-Luc cell line; Tox21_110001=Tox21_112079) was 21.8 µM.

Compound CCCCCCCCn1sccc1=O [Octhilinone] has a CC50 at 24 h (in vitro) of 5.52 µM and a CC50 (GH3-TRE-Luc cell line; Tox21_110001=Tox21_300566) of 3.8 µM.

For O=C(Nc1cccc(C(F)(F)F)c1)c1cc(Br)cc(Br)c1O [Fluorosalan], the CC50 at 24 h (in vitro) was 2.69 µM and the CC50 (GH3-TRE-Luc cell line; Tox21_110001=Tox21_112749) was 3.92 µM.

CC(C)Oc1cc(-n2nc(C(C)(C)C)oc2=O)c(Cl)cc1Cl [Oxadiazon] gave a CC50 at 24 h (in vitro) of 50.6 µM and a CC50 (GH3-TRE-Luc cell line; Tox21_110001=Tox21_300668) of 74.7 µM.

With Cc1c(C)c2c(c(C)c1O)CCC(C)(COc1ccc(CC3SC(=O)NC3=O)cc1)O2 (stereo not shown) [Troglitazone] the CC50 at 24 h (in vitro) was 54.8 µM and the CC50 (GH3-TRE-Luc cell line; Tox21_110001=Tox21_112119) was 41.3 µM.

For CCCCC/C=C\C/C=C\CCCCCCCC(=O)OC [Methyl linoleate], the CC50 at 24 h (in vitro) was greater than 90 µM and the CC50 (GH3-TRE-Luc cell line; Tox21_110001=Tox21_302917) was 74 µM.

In the case of Clc1ccc(C(c2ccc(Cl)cc2)C(Cl)Cl)cc1 [p,p'-DDD], the CC50 at 24 h (in vitro) was 27.9 µM and the CC50 (GH3-TRE-Luc cell line; Tox21_110001=Tox21_300191) was 35.5 µM.

In the case of O=c1n(CC2CO2)c(=O)n(CC2CO2)c(=O)n1CC1CO1 (stereo not shown) [Triglycidyl isocyanurate], the CC50 at 24 h (in vitro) was 27.2 µM, the CC50 (GH3-TRE-Luc cell line; Tox21_110001=Tox21_111097) was 26.2 µM and the CC50 (GH3-TRE-Luc cell line; Tox21_110001=Tox21_300119) was 33.9 µM.

CCCCCCCCCCCC[N+](C)(C)CCOc1ccccc1 [Domiphen bromide] gave a CC50 at 24 h (in vitro) of 10.6 µM and a CC50 (GH3-TRE-Luc cell line; Tox21_110001=Tox21_111054) of 12.4 µM.

Work on Nc1ccc(Cl)cc1N [4-Chloro-1,2-diaminobenzene] yielded a CC50 at 24 h (in vitro) of 73 µM and a CC50 (GH3-TRE-Luc cell line; Tox21_110001=Tox21_400037) greater than 90 µM.

Compound CC1=C(/C=C/C(C)=C/C=C/C(C)=C/CO)C(C)(C)CCC1 [Retinol] has a CC50 at 24 h (in vitro) of 63.5 µM and a CC50 (GH3-TRE-Luc cell line; Tox21_110001=Tox21_300287) of 85.7 µM.

Compound CCCCCCCCCCCCc1ccccc1O [Dodecylphenol] has a CC50 at 24 h (in vitro) of 11.8 µM and a CC50 (GH3-TRE-Luc cell line; Tox21_110001=Tox21_303360) of 15.3 µM.
